Patent US20250228857A1, “BIOSENSOR AND USES THEREOF” (The Johns Hopkins University, priority 2022, published 2025)
Where two headings read alike, the source gives them in different places.

Experiments:
CREM-IbAC-X mice = experiment: Spontaneous atrial fibrillation in CREM-IbAC-X mice; type: in vivo, mouse; conditions: 75 mg/kg i.p., 10 minutes after treatment
Text: (§1) (FIG. 7A) Representative type 1 diabetic mouse tracings immediately after atrial burst pacing. […] (FIG. 7B) Atrial fibrillation (AF) inducibility percentage from mice in FIG. 7A. Number of mice analyzed per group shown in each column: 9/16 vehicle treated mice had AF vs. 2/15 Rux-treated mice. (FIG. 7C) Sequential atrial fibrillation (AF) inducibility in OGT-transgenic mice. […] Number of mice analyzed per group shown in each column (Vehicle=5/5 had AF, Rux=1/5 had AF). […] Statistical comparisons were performed using 2-tailed Fischer's exact test (FIGS. 7B, 7C); two-way ANOVA with Sidak's multiple comparison's test (FIG. 7D); paired Student's T-test (FIG. 7E); *p<0.05, ****p<0.0001.
Spontaneous AF. 8-months-old CREM-IbAC-X mice were monitored via surface ECG for 15 minutes to establish the baseline for time spent in atrial fibrillation (AF). AF was defined as loss of p-waves and irregularly irregular R-R intervals for >10 seconds. Each mouse was monitored at least twice with more than 24 hours interval between two recordings. After establishing the baseline, the mice were injected with placebo (10% DMSO, 2.5% Tween-20 in saline; i.p. injections) and the 15-minute ECGs were recorded between 10-25 minutes post injection.

[1] = in vivo; cited from earlier work
[2] = tested on: WT and RyR2^R176Q/WT mice; experiment: ECG heart rate and electrophysiologic parameters in WT and RyR2^R176Q/WT mice
C57BL/6J mice [3] = experiment: Novel object recognition test (NORT); type: in vivo, mouse; conditions: 75 or 41 mg/kg; single dose 1 hour prior or twice daily for 7 days
293T cells = experiment: Cell viability in 293T cells (CellTiter-Glo 2.0); conditions: 12-hour exposure
NRVMs = experiment: NRVM cell viability after 48 hour compound incubation; type: cell-based, rat; conditions: 48-hour exposure
Text: FIGS. 3A-3H show which drugs in clinical use inhibit CaMKII in cardiac cells. (FIG. 3A) Fluorescence imaging timelapse of CaMKAR expressing neonatal rat ventricular cardiomyocytes (NRVMs) and (FIG. 3B) summary data during 3 Hz field pacing (n=1,065-1,160 cells). R/R0=R normalized to mean R prior to stimulation. Scale bar=50 μm. […] CaMKII inhibition % defined by min-max normalization between untreated and maximally stimulated CaMKAR signal. […] (FIG. 3E) Summary data from D at 60 seconds post stimulation. […] (FIG. 3H) Cell viability after 48 hour compound incubation. All measurements are taken from >3 biological replicates. ns=p>0.05, ****p<0.0001; significance determined via one-way ANOVA and Dunnett's multiple comparisons test (FIGS. 3C,3 E); two-way ANOVA and Tukey's multiple comparisons test (FIG. 3F).
Rat hippocampal neurons were cultured as previously described (38).

C57BL/6J mice [4] = experiment: Y maze spatial recognition memory test; type: in vivo, mouse
type 1 diabetic mice = experiment: Atrial fibrillation induction by atrial burst pacing in type 1 diabetic mice; type: in vivo, mouse; conditions: 75 mg/kg i.p. single dose 10 minutes prior
Text: as §1
Diabetic Mouse Model. Type-1 diabetes (T1D) was induced as previously described (57) in adult male C57BL/6J mice (The Jackson Laboratory, ME, USA) by a single intraperitoneal injection of streptozotocin (STZ)(185 mg/kg, Sigma-Aldrich) dissolved in a citrate buffer (citric acid and sodium citrate, pH 4.0) after a six hour fast. Mice were maintained on normal chow diet (NCD) (7913 irradiated NIH-31 modified 6% mouse/rat diet—15 kg, Envigo, Indianapolis, TN). Mice were considered diabetic if blood glucose level was ≥300 mg/dl via tail vein blood checked with a glucometer—OneTouch Ultra 2 (LifeScan, Zug, Switzerland). […]

[5] = in vivo; cited from earlier work; remark: listed apart in the source
OGT-transgenic mice = experiment: Sequential atrial fibrillation inducibility in OGT-transgenic mice; type: in vivo, mouse; conditions: 75 mg/kg prior to second pacing
Text: as §1
75 mg/kg dosing was chosen due to previous studies determining this dose to be equivalent to the 20-25 mg dose in humans based on plasma concentration (47-49). In vivo electrophysiology (EP) studies were performed as previously reported (57) in mice anesthetized with isoflurane (2% for induction and 1.5% for maintenance of anesthesia; Isotec 100 Series Isoflurane Vaporizer; Harvard Apparatus). AF was defined as the occurrence of rapid and fragmented atrial electrograms with irregular AV-nodal conduction and ventricular rhythm for at least 1 second. If 1 or more atrial bursts (out of 5) were an AF episode, the mouse was considered to have inducible AF. […]

[6] = rats; cited from earlier work
C57BL/6J mice [7] = experiment: Barnes maze; type: in vivo, mouse; conditions: 150 mg/kg/day
Experimental: (FIG. 20B) Latency to escape the Barnes maze during the probe trial (day 6). There was no significant deficit in ruxolitinib (Rux) treated mice over vehicle (Veh). Datapoints represent individual mice. (FIGS. 20C-20E) Latency to escape maze, primary errors, and total errors of mice subjected to Barnes maze during the 4 training trials. Statistical testing shown below each graph with proportion and significance of variance by each parameter. Data shown as mean±SEM. Significance was determined via Student's T-test (FIG. 20B), or two-way ANOVA (FIGS. 20C-20E).
For the Barnes maze: A brightly lit (1100 lux) Barnes maze with 20 evenly spaced holes and an escape box placed under one of the holes was used (Maze Engineers). During training, each mouse was placed in the center of the maze and allowed to explore the maze for 3 minutes per trial. During the trial, the number of head dips and the latency to find and then enter the escape box were recorded. Mice were given two trials per day for four days. 24 hours following training, mice were given a probe trial, with the number of head dips and latency to find and then enter the escape box recorded.

[8] = cited from earlier work
[9] = long-term ruxolitinib, median exposures 11.1 and 34.4 months

Which “percent time in AF” value (CREM-IbAC-X mice) does the source give for `N#CC[C@H](C1CCCC1)n1cc(-c2ncnc3[nH]ccc23)cn1` [ruxolitinib] here?
Its value is 33.63%.

And the CNS penetrance [1]?
Its CNS penetrance is 3.5% (64).

And the PR ([2]; RyR^R176Q/WT mice, Baseline)?
Its PR is 39.5 ± 1 ms.

What about the QTc ([2]; RyR^R176Q/WT mice, Baseline) of the same compound?
The QTc was 36.5 ± 5 ms.

What about the PR ([2]; RyR^R176Q/WT mice, EPI) of the same compound?
The PR was 42.2 ± 4 ms.

What about the QTc ([2]; RyR^R176Q/WT mice, EPI) of the same compound?
Its QTc is 49.5 ± 4 ms.

And the PR ([2]; RyR^R176Q/WT mice, ISO)?
The PR was 43.1 ± 3 ms.

What about the QTc ([2]; RyR^R176Q/WT mice, ISO) of the same compound?
Its QTc is 51.6 ± 5 ms.

And the PR ([2]; WT mice, Baseline)?
The PR was 43.4 ± 4 ms.

And the QTc ([2]; WT mice, Baseline)?
The QTc was 48.6 ± 6 ms.

And the PR ([2]; WT mice, EPI)?
The PR was 45.9 ± 2.7 ms.

What about the QTc ([2]; WT mice, EPI) of the same compound?
The QTc was 55.7 ± 8 ms.

What about the PR ([2]; WT mice, ISO) of the same compound?
Its PR is 43.8 ± 4 ms.

And the QTc ([2]; WT mice, ISO)?
Its QTc is 49.2 ± 4 ms.

And the “novel object recognition, percent time spent with the novel object” value (C57BL/6J mice [3])?
Its value is “Neither single dose (1 hour prior) nor multiple doses (twice daily for 7 days) of ruxolitinib (75 or 41 mg/kg) caused significant differences in novel object recognition”.

What about the “toxicity compared with AS100397” value (293T cells) of the same compound?
The value was “less toxic”.

And the well tolerated concentration (NRVMs)?
The well tolerated concentration was “up to 100 μM”.

And the “decreased preference for the novel arm” value (C57BL/6J mice [4]; higher dose single dosing and both multiple dosing cohorts)?
The value was “not seen”.

And the “preference for the novel arm” value (C57BL/6J mice [4]; single dosing, lower dose (41 mg/kg))?
The value was “decreased preference for the novel arm”.

What about the “mice with AF / mice analyzed” value (type 1 diabetic mice) of the same compound?
The value was 2/15.

What about the “maximum human plasma concentration” value [5] of the same compound?
Its value is 1.51 µM.

And the “mice with AF / mice analyzed” value (OGT-transgenic mice)?
The value was 1/5.

What about the “plasma concentration over brain concentration” value [6] of the same compound?
Its value is 29 fold.

And the “latency, primary errors, and total errors during training trials” value (C57BL/6J mice [7])?
The value was “no significant effect”.

And the “maze solving latency at study endpoint (probe trial)” value (C57BL/6J mice [7]; day 6)?
The value was “no difference”.

What about the “Maximum dose used in humans” value ([8]; FDA-approved) of the same compound?
Its value is 25 mg BID (96).

What about the “Maximum dose used in humans” value ([8]; Healthy volunteers) of the same compound?
The value was 200 mg QD (76).

What about the well-tolerated dose ([8]; healthy volunteers, short-term dosing) of the same compound?
Its well-tolerated dose is “up to 200 mg”.

And the “patients discontinuing treatment due to anemia” value [8, 9]?
Its value is less than 2.6%.

What about the “patients discontinuing treatment due to thrombocytopenia” value [8, 9] of the same compound?
The value was less than 3.6%.

And the “cognitive deficits in patients” value ([8]; prescribed for over a decade)?
Its value is “without reported overt cognitive deficits”.
